According to patent US20120270943A1 (priority 2011, published 2012):

Tests used:
water solubility = type: physicochemical
[1] = administration of D-aspartic acid hydrochloride and/or ethyl ester hydrochloride; type: in vivo; conditions: administration by ingestion, injection or nasal spray, 10 mg to 100 g per day
Experimental: The D-aspartic acid hydrochloride or D-aspartic acid ethyl ester hydrochloride are administered by ingestion of pills, capsules, powdered drink mixes, beverages, confectionaries, syrups, and/or chewable tablets, or by injection of an aqueous solution, or via a nasal spray.

humans = conditions: cited from earlier work
pituitary gland; testes = conditions: in vivo; cited from earlier work

Compound	water solubility (in words) (water solubility)	LH and HGH levels [1]	libido and/or mood [1]	strength, muscle mass, endurance and rate of recovery [1]	testosterone [1]	LH levels (humans; oral, almost four (4) grams a day, men)	rise of testosterone, level greater than day zero (humans; oral, almost four (4) grams a day, peak on day twelve (12), twenty-three (23) men) [%]	levels of testosterone after discontinuation (humans; three (3) days after discontinuation)	effect in the testes upon testosterone production (pituitary gland; testes)	release of Luteinizing Hormone (LH) and Growth Hormone (GH) from the pituitary gland (pituitary gland; testes)
CCOC(=O)C[C@@H](N)C(=O)OCC.Cl [D-aspartic acid diethyl ester hydrochloride]	high water solubility	increase	improves/increases	increases	increase	–	–	–	–	–
Cl.N[C@H](CC(=O)O)C(=O)O [D-aspartic acid hydrochloride]	–	increase	improves/increases	increases	increase	–	–	–	–	–
N[C@H](CC(=O)O)C(=O)O [D-aspartic acid]	–	–	–	–	–	increased significantly	42	still significantly increased	direct stimulating effect	stimulate the release
